Measurements as given in patent US20200054651A1, “COMPOSITIONS AND METHODS FOR MODULATING PPP2R1A” (The Regents of the University of California, priority 2017, published 2020).

Columns and labels:
[1] = test system: 231MFP breast cancer cells; test: 231MFP cell proliferation (Hoechst staining); type: cell-based; conditions: 100 μM, 48 h, 231MFP
[2] = target: T1, pure human PPP2R1A protein (Homo sapiens, UniProt P30153); test: Gel-based ABPP, competition against IAyne labeling; type: binding; conditions: 30 min at 37° C. pre-treatment, IAyne labeling
T1 construct: purchased Origene
T1 sequence (P30153 whole entry): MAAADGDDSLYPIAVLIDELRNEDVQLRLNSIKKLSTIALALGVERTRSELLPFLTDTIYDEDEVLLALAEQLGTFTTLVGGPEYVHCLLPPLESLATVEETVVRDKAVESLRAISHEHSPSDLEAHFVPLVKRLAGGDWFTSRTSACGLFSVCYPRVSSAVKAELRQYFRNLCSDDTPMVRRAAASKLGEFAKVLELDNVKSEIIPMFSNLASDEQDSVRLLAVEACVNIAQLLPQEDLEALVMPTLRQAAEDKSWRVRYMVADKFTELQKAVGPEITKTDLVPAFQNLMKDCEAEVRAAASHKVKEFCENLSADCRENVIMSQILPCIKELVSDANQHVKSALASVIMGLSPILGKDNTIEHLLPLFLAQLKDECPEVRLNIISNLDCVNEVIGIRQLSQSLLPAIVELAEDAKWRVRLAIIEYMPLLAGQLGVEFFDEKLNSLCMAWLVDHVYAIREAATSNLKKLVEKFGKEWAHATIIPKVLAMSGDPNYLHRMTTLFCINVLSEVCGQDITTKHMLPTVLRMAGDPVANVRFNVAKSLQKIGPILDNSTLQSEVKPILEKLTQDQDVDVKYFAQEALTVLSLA
Method: Gel-based ABPP methods were performed using the methods described in “Chem Biol 22(10), 1394-1405 (2015)” by Medina-Cleghorn D., et al. Recombinant pure human proteins were purchased from Origene. Pure proteins were pre-treated with DMSO, Withaferin A, or acrylamide or chloroacetamide compounds (e.g., DKM 2-90 or JNS 1-40) for 30 minutes at 37° C. in an incubation volume of PBS (50 μL), and were subsequently treated with IAyne (10 μM final concentration) for 30 minutes at room temperature. CuAAC was performed to append rhodamine-azide onto IAyne probe-labeled proteins. The samples were separated by SDS/PAGE and scanned using a ChemiDoc MP. Inhibition of target labeling was assessed by densitometry using ImageStudio Light software.

In the case of O=C(CCl)Nc1cccc2c1CCC2 [DKM 2-91], the cell proliferation [1] is reported as “lead compounds”.
For O=C(CCl)Nc1ccc2c(c1)CCCC2 [JNS 1-37, 2-Chloro-N-(5,6,7,8-tetrahydronaphthalen-2-yl)acetamide], the IC50 [2] was 300 µM.
